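Briefly, cells in 96-well plates were exposed to five compound concentrations for 48 h, and endpoints were estimated by linear interpolation. GI50: concentration for 50% inhibition of growth.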 Calls of active or inactive are those of the source. Rule as the data show it: active = GI50 up to about 1.1 µM and inactive = higher.
Tests used:
Test in all cases: inhibition of tumour cell growth, NCI panel, 48 h
SNB-75 = system: SNB-75
Hs-578T = system: Hs-578T
CCRF-CEM = system: CCRF-CEM
RPMI-8226 = system: RPMI-8226
EKVX = system: EKVX
SW-620 = system: SW-620
MDA-MB-435 = system: MDA-MB-435
M14 = system: M14
TK-10 = system: TK-10
SF-295 = system: SF-295
OVCAR-8 = system: OVCAR-8
NCI-H460 = system: NCI-H460
MDA-N = system: MDA-N
SF-268 = system: SF-268
NCI-H522 = system: NCI-H522
KM12 = system: KM12
HCC 2998 = system: HCC 2998
NCI-H226 = system: NCI-H226
RXF 393 = system: RXF 393
SN12C = system: SN12C

| Structure (SMILES) | GI50 (SNB-75) | GI50 (Hs-578T) | GI50 (CCRF-CEM) | GI50 (RPMI-8226) | GI50 (EKVX) | GI50 (SW-620) | GI50 (MDA-MB-435) | GI50 (M14) | GI50 (TK-10) | GI50 (SF-295) | GI50 (OVCAR-8) | GI50 (NCI-H460) | GI50 (MDA-N) | GI50 (SF-268) | GI50 (NCI-H522) | GI50 (KM12) | GI50 (HCC 2998) | GI50 (NCI-H226) | GI50 (RXF 393) | GI50 (SN12C) |
| --- | --- | --- | --- | --- | --- | --- | --- | --- | --- | --- | --- | --- | --- | --- | --- | --- | --- | --- | --- | --- |
| CN(C)CCNc1ccc2c(=O)n(CCN(C)C)c(=O)n3c4ccc(N)cc4c(=O)c1c23 | 0.0782 µM (active) | 0.178 µM (active) | < 0.01 µM (active) | 0.04 µM (active) | 0.119 µM (active) | < 0.01 µM (active) | 0.101 µM (active) | 0.12 µM (active) | 0.318 µM (active) | 0.0671 µM (active) | < 0.01 µM (active) | < 0.01 µM (active) | 0.0502 µM (active) | < 0.0272 µM (active) | < 0.01 µM (active) | 0.0644 µM (active) | 0.0392 µM (active) | < 0.0215 µM (active) | 0.0769 µM (active) | < 0.01 µM (active) |
| O=C1NC(=O)C(Cc2ccccc2)(c2cccnc2)N1 (stereo not given) | > 100 µM (inactive) | > 100 µM (inactive) | > 100 µM (inactive) | > 100 µM (inactive) | > 100 µM (inactive) | > 100 µM (inactive) | > 100 µM (inactive) | > 100 µM (inactive) | > 100 µM (inactive) | > 100 µM (inactive) | > 100 µM (inactive) | > 100 µM (inactive) | > 100 µM (inactive) | > 100 µM (inactive) | > 100 µM (inactive) | > 100 µM (inactive) | > 100 µM (inactive) | > 100 µM (inactive) | > 100 µM (inactive) | > 100 µM (inactive) |
| CCN(Cc1cc(Cl)cc(C)c1O)Cc1c(O)ccc2ccccc12 | 11.7 µM (inactive) | 15.9 µM (inactive) | 10.5 µM (inactive) | 17.4 µM (inactive) | 17.3 µM (inactive) | 25.4 µM (inactive) | 15.8 µM (inactive) | 18.4 µM (inactive) | 17.1 µM (inactive) | 16.9 µM (inactive) | 17.7 µM (inactive) | 18.2 µM (inactive) | 18.1 µM (inactive) | 18.2 µM (inactive) | 11.2 µM (inactive) | 17.3 µM (inactive) | 16.8 µM (inactive) | 19.1 µM (inactive) | 16.4 µM (inactive) | 18.2 µM (inactive) |
| O=C1N=C2SC=C(NC(=S)Nc3ccccc3)N2NC12c1ccccc1-c1ccccc12 | > 10 µM (inactive) | > 10 µM (inactive) | > 10 µM (inactive) | > 10 µM (inactive) | 9.25 µM (inactive) | > 10 µM (inactive) | > 10 µM (inactive) | > 10 µM (inactive) | > 10 µM (inactive) | > 10 µM (inactive) | > 10 µM (inactive) | > 10 µM (inactive) | > 10 µM (inactive) | > 10 µM (inactive) | > 10 µM (inactive) | > 10 µM (inactive) | > 10 µM (inactive) | > 10 µM (inactive) | > 10 µM (inactive) | > 10 µM (inactive) |
| COc1ccc(OC)c2cc(Cc3ccc(N(C)C)cc3)c(=O)c(Cc3ccc(N(C)C)cc3)cc12 | 40.4 µM (inactive) | 25.5 µM (inactive) | > 100 µM (inactive) | 22.4 µM (inactive) | > 100 µM (inactive) | > 100 µM (inactive) | > 100 µM (inactive) | > 100 µM (inactive) | – | > 100 µM (inactive) | 32.9 µM (inactive) | 55.6 µM (inactive) | > 100 µM (inactive) | 46.7 µM (inactive) | 20.7 µM (inactive) | > 100 µM (inactive) | > 100 µM (inactive) | 47.3 µM (inactive) | > 100 µM (inactive) | > 100 µM (inactive) |
| CC(C)(C)N1C(=O)c2ccccc2C1(O)C(F)(F)F (stereo not given) | 24.4 µM (inactive) | 24 µM (inactive) | > 100 µM (inactive) | 76.6 µM (inactive) | 64 µM (inactive) | > 100 µM (inactive) | > 100 µM (inactive) | > 100 µM (inactive) | > 100 µM (inactive) | > 100 µM (inactive) | > 100 µM (inactive) | > 100 µM (inactive) | 84.9 µM (inactive) | > 100 µM (inactive) | 64.4 µM (inactive) | > 100 µM (inactive) | > 100 µM (inactive) | > 100 µM (inactive) | > 100 µM (inactive) | > 100 µM (inactive) |
| Cc1c(NC(=S)Nc2ccc([N+](=O)[O-])cc2)c(=O)n(-c2ccccc2)n1C | > 100 µM (inactive) | > 100 µM (inactive) | > 100 µM (inactive) | 16.6 µM (inactive) | > 100 µM (inactive) | > 100 µM (inactive) | > 100 µM (inactive) | > 100 µM (inactive) | > 100 µM (inactive) | > 100 µM (inactive) | > 100 µM (inactive) | > 100 µM (inactive) | > 100 µM (inactive) | > 100 µM (inactive) | > 100 µM (inactive) | > 100 µM (inactive) | > 100 µM (inactive) | > 100 µM (inactive) | > 100 µM (inactive) | – |
| Cc1cc2c(cc1Cl)SC(NN(C)C)=NS2(=O)=O | > 10 µM (inactive) | > 10 µM (inactive) | > 10 µM (inactive) | > 10 µM (inactive) | > 10 µM (inactive) | > 10 µM (inactive) | > 10 µM (inactive) | > 10 µM (inactive) | > 10 µM (inactive) | > 10 µM (inactive) | > 10 µM (inactive) | > 10 µM (inactive) | > 10 µM (inactive) | > 10 µM (inactive) | > 10 µM (inactive) | > 10 µM (inactive) | > 10 µM (inactive) | > 10 µM (inactive) | > 10 µM (inactive) | > 10 µM (inactive) |
| CCOC(=O)/C=C(/C(=O)OCC)n1ccc(=O)n(Cc2cn(COCCOC(C)=O)nn2)c1=O | 33 µM (inactive) | 26.4 µM (inactive) | 2.14 µM (inactive) | 19.5 µM (inactive) | 16.9 µM (inactive) | 7.05 µM (inactive) | 17.9 µM (inactive) | – | 16.8 µM (inactive) | > 100 µM (inactive) | 16.4 µM (inactive) | 15.6 µM (inactive) | 50 µM (inactive) | 18.2 µM (inactive) | 4.54 µM (inactive) | 15.5 µM (inactive) | 17.8 µM (inactive) | 33.7 µM (inactive) | 25.6 µM (inactive) | 34.8 µM (inactive) |
| O=C1[C@H](c2ccccc2)C2c3ccccc3CCN12 (stereo not given in full) | > 100 µM (inactive) | > 10 µM (inactive) | > 10 µM (inactive) | > 10 µM (inactive) | > 10 µM (inactive) | > 10 µM (inactive) | > 10 µM (inactive) | > 10 µM (inactive) | > 10 µM (inactive) | > 10 µM (inactive) | > 10 µM (inactive) | > 10 µM (inactive) | > 10 µM (inactive) | > 10 µM (inactive) | > 10 µM (inactive) | > 10 µM (inactive) | > 10 µM (inactive) | > 10 µM (inactive) | > 10 µM (inactive) | > 10 µM (inactive) |
| CCCCCCC(C)c1ccc2c(c1)C(=O)c1nc3ccncc3c(=O)n1-2 (stereo not given) | 8.59 µM (inactive) | 9.62 µM (inactive) | 0.836 µM (active) | 1.15 µM (inactive) | 4.25 µM (inactive) | 2.61 µM (inactive) | 0.352 µM (active) | 2.94 µM (inactive) | 4.86 µM (inactive) | 6.38 µM (inactive) | 6.87 µM (inactive) | 2.07 µM (inactive) | 0.237 µM (active) | 36.2 µM (inactive) | 1.29 µM (inactive) | 1.79 µM (inactive) | 3.94 µM (inactive) | 4.16 µM (inactive) | 4.06 µM (inactive) | 4.33 µM (inactive) |
| COc1ccc(N2CCOCC2)cc1 | > 100 µM (inactive) | > 100 µM (inactive) | > 100 µM (inactive) | > 100 µM (inactive) | > 100 µM (inactive) | > 100 µM (inactive) | > 100 µM (inactive) | > 100 µM (inactive) | > 100 µM (inactive) | > 100 µM (inactive) | > 100 µM (inactive) | > 100 µM (inactive) | > 100 µM (inactive) | > 100 µM (inactive) | > 100 µM (inactive) | > 100 µM (inactive) | > 100 µM (inactive) | > 100 µM (inactive) | > 100 µM (inactive) | > 100 µM (inactive) |
| CCOC(=O)C(=O)/C(=C\NC(=S)Nc1ccccc1Cl)C(=O)OCC | > 100 µM (inactive) | > 100 µM (inactive) | > 100 µM (inactive) | > 100 µM (inactive) | > 100 µM (inactive) | > 100 µM (inactive) | > 100 µM (inactive) | > 100 µM (inactive) | – | > 100 µM (inactive) | > 100 µM (inactive) | > 100 µM (inactive) | > 100 µM (inactive) | > 100 µM (inactive) | > 100 µM (inactive) | > 100 µM (inactive) | > 100 µM (inactive) | > 100 µM (inactive) | > 100 µM (inactive) | > 100 µM (inactive) |
| Fc1ccc(/N=C/C=C/Nc2ccc(F)cc2)cc1 | 15 µM (inactive) | 19.9 µM (inactive) | 4.67 µM (inactive) | 12.4 µM (inactive) | 12.9 µM (inactive) | 3.32 µM (inactive) | 5.3 µM (inactive) | 0.137 µM (active) | – | 8.28 µM (inactive) | 12.9 µM (inactive) | 6.19 µM (inactive) | 2.75 µM (inactive) | 13.4 µM (inactive) | 13.5 µM (inactive) | 3.31 µM (inactive) | 3.05 µM (inactive) | 19.5 µM (inactive) | 15.8 µM (inactive) | 14 µM (inactive) |

From ChEMBL document CHEMBL1201862, “PubChem BioAssay data set” (2004)
